Assay results as given in patent US12509431B2, “1,4-dihydroquinazolinone compounds and uses thereof” (Edgewise Therapeutics, Inc., priority 2022, dated 2025).

What was measured:
Format in all cases: biochemical
Settings in all cases: Table 8
[1] = molecular target: T1, Porcine Ventricle myofibrils (left ventricle of Yucatan minipigs) (Sus scrofa, UniProt P79293); assay: Myofibril ATPase assay (PK/LDH NADH-coupled), ventricle myofibrils
T1 construct: Myofibrils from porcine cardiac muscle was isolated from the left ventricle of Yucatan minipigs; tissue Exemplar Genetics; host or cells: left ventricle of Yucatan minipigs
T1 sequence (P79293 whole entry): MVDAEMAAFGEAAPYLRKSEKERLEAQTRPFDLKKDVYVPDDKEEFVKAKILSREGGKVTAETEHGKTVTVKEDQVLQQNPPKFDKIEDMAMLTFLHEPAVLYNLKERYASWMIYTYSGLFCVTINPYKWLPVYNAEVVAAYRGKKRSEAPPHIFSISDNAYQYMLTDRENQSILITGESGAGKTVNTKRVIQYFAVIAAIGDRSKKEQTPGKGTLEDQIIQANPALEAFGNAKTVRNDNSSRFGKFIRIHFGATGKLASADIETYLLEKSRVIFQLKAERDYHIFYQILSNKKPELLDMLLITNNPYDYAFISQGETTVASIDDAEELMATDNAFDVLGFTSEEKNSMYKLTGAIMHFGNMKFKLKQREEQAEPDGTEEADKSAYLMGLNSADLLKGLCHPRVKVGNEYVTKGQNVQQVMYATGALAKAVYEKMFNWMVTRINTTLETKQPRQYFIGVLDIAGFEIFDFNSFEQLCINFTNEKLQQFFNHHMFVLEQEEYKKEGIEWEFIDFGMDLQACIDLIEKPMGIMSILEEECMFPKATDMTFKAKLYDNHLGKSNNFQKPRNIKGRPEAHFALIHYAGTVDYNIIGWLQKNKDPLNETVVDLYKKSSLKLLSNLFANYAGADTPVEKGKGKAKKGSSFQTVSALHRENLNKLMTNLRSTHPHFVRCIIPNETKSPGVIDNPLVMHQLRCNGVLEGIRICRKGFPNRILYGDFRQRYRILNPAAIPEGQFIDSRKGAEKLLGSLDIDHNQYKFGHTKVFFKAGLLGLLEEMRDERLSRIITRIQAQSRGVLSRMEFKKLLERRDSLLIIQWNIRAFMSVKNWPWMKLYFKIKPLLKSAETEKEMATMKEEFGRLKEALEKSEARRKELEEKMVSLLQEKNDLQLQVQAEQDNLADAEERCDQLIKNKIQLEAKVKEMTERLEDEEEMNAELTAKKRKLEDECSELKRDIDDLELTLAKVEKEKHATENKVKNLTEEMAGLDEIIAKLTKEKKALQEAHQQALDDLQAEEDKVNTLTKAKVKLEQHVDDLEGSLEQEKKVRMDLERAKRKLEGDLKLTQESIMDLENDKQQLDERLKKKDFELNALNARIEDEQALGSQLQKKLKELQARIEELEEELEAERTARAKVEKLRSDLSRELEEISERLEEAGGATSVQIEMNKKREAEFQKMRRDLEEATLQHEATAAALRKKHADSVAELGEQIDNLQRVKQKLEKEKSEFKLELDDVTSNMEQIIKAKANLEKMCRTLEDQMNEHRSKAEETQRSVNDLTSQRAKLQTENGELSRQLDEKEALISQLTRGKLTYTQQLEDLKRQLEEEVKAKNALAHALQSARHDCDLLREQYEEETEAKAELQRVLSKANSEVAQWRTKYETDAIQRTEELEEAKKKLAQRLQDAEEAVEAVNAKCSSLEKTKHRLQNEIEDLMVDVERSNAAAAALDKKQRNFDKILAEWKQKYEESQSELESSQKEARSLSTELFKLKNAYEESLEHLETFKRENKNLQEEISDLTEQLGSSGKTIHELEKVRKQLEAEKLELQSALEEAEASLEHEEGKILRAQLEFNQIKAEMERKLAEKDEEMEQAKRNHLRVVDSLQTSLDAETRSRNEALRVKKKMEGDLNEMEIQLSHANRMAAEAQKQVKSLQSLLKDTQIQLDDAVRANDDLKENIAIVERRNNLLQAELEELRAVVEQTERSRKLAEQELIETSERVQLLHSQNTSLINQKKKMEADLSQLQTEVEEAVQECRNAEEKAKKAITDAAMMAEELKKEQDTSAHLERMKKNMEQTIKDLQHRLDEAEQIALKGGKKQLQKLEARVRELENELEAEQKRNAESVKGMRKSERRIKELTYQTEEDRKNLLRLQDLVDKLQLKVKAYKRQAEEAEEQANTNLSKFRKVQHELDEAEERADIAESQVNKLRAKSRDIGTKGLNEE
Protocol: (§1) Myofibril ATPase assays are known in the art to be useful in evaluating small molecules for the treatment of HCM and other cardiac indications. Myosin ATPase activity is assessed by using a coupled reaction system, in which ADP generated by the myosin ATPase function is coupled to the disappearance of NADH through the pyruvate kinase/lactate dehydrogenase (PK-LDH) system. ATPase activity produces ADP, which is used as a substrate for PK to produce pyruvate and regenerate ATP. The pyruvate is then used as a substrate by LDH to oxidize NADH to NAD+. The rate of the reaction is monitored through the time-dependent disappearance of NADH using absorbance at 340 nm, which, when the couple system is in stoichiometric excess, is directly correlated to the ATPase activity of the myosin. Inhibition of ATPase activity by the assayed compounds is indicated by a reduced rate of NADH loss, relative to vehicle-treated controls, over the experimental time window. Rabbit Skeletal and Porcine Ventricle are the primary sources of myofibril material.
(§2) Materials: The following stock solutions and reagents were used in the Myofibril ATPase Assay:
(§3) Stock Solutions of pCa buffer. Combine PIPES, CaCl2), and EGTA solutions with water. Adjust pH to 7.0 and bring final volume to 100 mL.
(§4) Buffer A & Buffer B. Prepare buffers A and B according to the table below.
(§5) Myofibril ATPase Assay Procedure: BSA, ATP, NADH, PEP, and DTT solutions were thawed at room temperature, then transferred to ice. Pellet-frozen myofibrils were transferred with approximately twice the required volume into a sufficiently large tube and capped. Myofibrils were thawed by rolling in a water bath for approximately 15 min at room temperature and cooled on ice. Buffers A and B were prepared by adjusting volumes as necessary for required number of wells and stored on ice. 0.5 μL of the compounds to be assayed were added into wells. 25 μL of Buffer A was dispensed into the wells, followed by 25 μL of Buffer B. The wells were measured for absorbance at 340 nm, using a kinetic protocol in which the wells are read every 1.5-2 min for 75 min. Assay data analysis was performed using a python script that filtered the raw data to retain those points falling between a starting and ending time and between a maximum and minimum absorbance, then used the filtered time-domain 340 nm absorbance data in each well to calculate a slope via linear regression analysis in units of mAU/min. Compound slopes were normalized between 100% and 0% activity, where 100% represented the slope of wells containing only compound vehicle, and fit to a 4-parameter logistic model. In addition to the fit parameters, the EC25% is calculated, relative to the 100% normalized value. In the case of inhibitors, EC50% is also calculated, if available. Fit parameters, calculated effective concentrations, filtered raw data, and calculated slopes were exported, in addition to compound-specific graphs of normalized ATPase activity versus concentration in μM.
Cardiac Myofibril Isolation:
Myofibrils from porcine cardiac muscle was isolated from the left ventricle of Yucatan minipigs. Myofibrils were prepared using a method based upon those described in Herrmann et al. (1993) and summarized here. Minced tissue was homogenized for 50 sec with a Polytron homogenizer into 10 volumes (relative to weight in grams) of Isolation Buffer A (75 mM KCl, 10 mM Imidazole, 2 mM MgCl2, 2 mM EGTA, 1 mM NaN3, 1% v/v Triton X-100) supplemented with 4 mM Phosphocreatine, 1 mM ATP, 50 mM BDM, 1 mM DTT, 1 mM Benzamide HCl, 0.1 mM PMSF, 10 μM leupeptin, 5 μM pepstatin, and 10 mM EDTA. The myofibrils were recovered by centrifugation (Beckman Allegra 6R, 1200 g, 15 min) and resuspended in 10 volumes Isolation Buffer B (Buffer A above without supplemental reagents). The myofibrils were further homogenized described above and recovered by centrifugation for 7 mins. Cellular membranes and debris were removed by 3 washes in Isolation Buffer B, centrifuging each as before. […]

[2] = system: Rabbit Skeletal myofibrils (rabbit psoas muscle); assay: Myofibril ATPase assay (PK/LDH NADH-coupled), skeletal myofibrils
Protocol: as §1, §2, §3, §4, §5
Skeletal Myofibril Isolation:
Myofibrils from various animals and tissue types were acquired from a variety of sources: rabbit psoas muscle was purchased from Pel-Freez Biologicals (Rogers, AR) and porcine cardiac muscle was purchased from Exemplar Genetics. All myofibrils were prepared using a method based upon those described in Herrmann et al. (1993) and summarized here. Minced tissue was homogenized for 50 sec with a Polytron homogenizer into 10 volumes (relative to weight in grams) of Isolation Buffer A (50 mM Tris, pH 8.0, 0.1 M potassium acetate, 5 mM KCl, 2 mM DTT, 5 mM EDTA, 0.5% v/v Triton X-100) supplemented with 0.1 mM PMSF, 10 μM leupeptin, 5 μM pepstatin, and 0.5 mM sodium azide. The myofibrils were recovered by centrifugation (Beckman Allegra 6R, 1200 g, 10 min) and resuspended in 10 volumes Isolation Buffer B (Buffer A above without protease inhibitors or sodium azide). The myofibrils were further homogenized as before and recovered by centrifugation. […]

Porcine Atria myofibrils = assay: Myofibril ATPase assay (PK/LDH NADH-coupled), atria myofibrils
Protocol: as §5

Row | Compound | Porcine Ventricle IC25 [1] [nM] | Rabbit Psoas IC25 [2] [nM] | Porcine Atria IC25 (Porcine Atria myofibrils) [nM]
1 | C[C@@H](NC(=O)CN1Cc2c(ccc(F)c2F)NC1=O)c1ncc(F)cc1Cl [Compound B36] | 14.8 | 10.5 | 20
2 | C[C@H](NC(=O)CN1Cc2c(ccc(F)c2F)NC1=O)c1ncc(F)cc1Cl [Compound B37] | 490.1 | 384.4 | 280
3 | Cc1cc(F)cnc1[C@@H](C)NC(=O)CN1Cc2c(ccc(F)c2F)NC1=O [Compound B38] | 3820 | 10640 | 980
4 | Cc1cc(F)cnc1[C@H](C)NC(=O)CN1Cc2c(ccc(F)c2F)NC1=O [Compound B39] | 48.3 | 20.3 | 20
5 | C[C@@H](NC(=O)CN1Cc2cc(F)cc(Cl)c2NC1=O)c1ccc(C#N)cc1F [Compound B40] | 17720 | 100000 | 100000
6 | C[C@H](NC(=O)CN1Cc2cc(F)cc(Cl)c2NC1=O)c1ccc(C#N)cc1F [Compound B41] | 1384 | 85.7 | 1740
7 | C[C@@H](NC(=O)CN1Cc2c(F)cc(F)cc2NC1=O)c1ccc(C#N)cc1F [Compound B42] | 3177 | 745.5 | 590
8 | C[C@H](NC(=O)CN1Cc2c(F)cc(F)cc2NC1=O)c1ccc(C#N)cc1F [Compound B43] | 47.3 | 15.8 | 40
9 | C[C@@H](NC(=O)CN1Cc2cc(F)c(F)cc2NC1=O)c1ccc(C#N)cc1F [Compound B44] | 527.8 | 4901 | 450
10 | C[C@H](NC(=O)CN1Cc2cc(F)c(F)cc2NC1=O)c1ccc(C#N)cc1F [Compound B45, N-[(1S)-1-(4-cyano-2-fluorophenyl)ethyl]-2-(6,7-difluoro-2-oxo-1,4-dihydroquinazolin-3-yl)acetamide] | 45.7 | 11.5 | 20
11 | Cc1cnncc1[C@@H](C)NC(=O)CN1Cc2c(ccc(F)c2F)NC1=O [Compound B46] | 1847 | 660.1 | 580
12 | C[C@H](NC(=O)[C@H](CC1CC1)N1Cc2c(ccc(F)c2F)NC1=O)c1ccc(F)cc1F [Compound B48] | 62100 | 12650 | 100000
13 | C[C@@H](NC(=O)[C@@H](CC1CC1)N1Cc2c(ccc(F)c2F)NC1=O)c1ccc(F)cc1F [Compound B49] | 45960 | 100000 | 6510
14 | CC(C)C[C@@H](C(=O)N[C@@H](C)c1ncc(F)cc1F)N1Cc2c(ccc(F)c2F)NC1=O [Compound B50] | 42560 | 100000 | 100000
15 | CC(C)C[C@H](C(=O)N[C@H](C)c1ncc(F)cc1F)N1Cc2c(ccc(F)c2F)NC1=O [Compound B51] | 100000 | 100000 | 49070
16 | C[C@@H](NC(=O)CN1Cc2c(ccc(F)c2F)NC1=O)c1cc(C#N)c(F)cn1 [Compound B52] | 1456 | 3964 | 420
17 | Cc1nc(C#N)cnc1[C@@H](C)NC(=O)CN1Cc2c(ccc(F)c2F)NC1=O [Compound B54] | 962.8 | 579.6 | 110
18 | Cc1cc(F)cc2c1CN(CC(=O)N[C@H](C)c1ccc(C#N)cc1F)C(=O)N2 [Compound B56] | 1991 | 1887 | 1640
19 | Cc1cc(F)cc2c1CN(CC(=O)N[C@@H](C)c1ccc(C#N)cc1F)C(=O)N2 [Compound B57] | 89.9 | 13.9 | 40
20 | Cc1cc(F)cc2c1NC(=O)N(CC(=O)N[C@H](C)c1ccc(C#N)cc1F)C2 [Compound B58] | 4230 | 6712 | 1020
21 | Cc1cc(F)cc2c1NC(=O)N(CC(=O)N[C@@H](C)c1ccc(C#N)cc1F)C2 [Compound B59, N-[(1S)-1-(4-cyano-2-fluorophenyl)ethyl]-2-(6-fluoro-8-methyl-2-oxo-1,4-dihydroquinazolin-3-yl)acetamide] | 951.9 | 81.8 | 630
22 | CC(C)C[C@@H](C(=O)N[C@@H](C)c1ccc(F)cc1F)N1Cc2c(ccc(F)c2F)NC1=O [Compound B60] | 100000 | 2769 | 800
23 | CC(C)C[C@H](C(=O)N[C@H](C)c1ccc(F)cc1F)N1Cc2c(ccc(F)c2F)NC1=O [Compound B61] | 100000 | 100000 | 100000
24 | O=C(CN1Cc2c(ccc(F)c2F)NC1=O)N[C@@H]1COCc2cc(F)cc(F)c21 [Compound B62] | 41.5 | 14.3 | 40
25 | O=C(CN1Cc2c(ccc(F)c2F)NC1=O)N[C@H]1COCc2cc(F)cc(F)c21 [Compound B63] | 100000 | 100000 | 1810
